Holding throughout (type): cell-based
In one experiment the target is T1, ERα (Homo sapiens, UniProt P03372).
T1 sequence (P03372 311-547 limits assumed): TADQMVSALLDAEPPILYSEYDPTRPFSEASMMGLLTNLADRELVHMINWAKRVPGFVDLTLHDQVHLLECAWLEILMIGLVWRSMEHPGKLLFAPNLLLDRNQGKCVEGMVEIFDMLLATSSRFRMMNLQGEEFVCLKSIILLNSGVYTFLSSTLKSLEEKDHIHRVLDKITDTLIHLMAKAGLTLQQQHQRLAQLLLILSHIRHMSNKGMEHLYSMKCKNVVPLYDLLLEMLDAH
Kind of experiment: ERα luciferase reporter gene experiment. Particulars: HEK293 transfected with pBIND-ERα. The procedure:
(§1) HEK293 cells were cultured in DMEM+10% FBS medium in a carbon dioxide incubator humidified at 37° C. at 5% carbon dioxide.
(§2) • 1) HEK293 cells were trypsinized, and the HEK293 cell resuspension was adjusted to 200,000 cell/mL in medium (96 well plate: 100 μL/well). • 2) Transfection reagent mixtures were prepared according to the table below, mixed well and left at room temperature for 20 minutes.
(§3) • 3) The prepared transfection mixtures were added to 10 mL of the cell density-adjusted resuspension, mixed well by turning the mixtures upside down, and seeded into a 96-well plate at a volume of 100 μL/well. • 4) The 96-well plate was incubated in a humidified incubator at 37° C. and 5% carbon dioxide for 24 hours.
(§4) The test plate was detected using the Dual-Glo Luciferase Assay System kit from Promega, and the fluorescence signal of Firefly Luciferase and the fluorescence signal of Renilla Luciferase were read using Enspire, respectively.
(§5) Y is the agonism and X is the concentration of the compound.
For orientation: A reporter such as luciferase makes a cellular process visible.

The target in another experiment is T2, MR (Homo sapiens, UniProt P08235).
T2 construct: expressed in transfected cells; host or cells: HEK293
T2 sequence (P08235 1-984): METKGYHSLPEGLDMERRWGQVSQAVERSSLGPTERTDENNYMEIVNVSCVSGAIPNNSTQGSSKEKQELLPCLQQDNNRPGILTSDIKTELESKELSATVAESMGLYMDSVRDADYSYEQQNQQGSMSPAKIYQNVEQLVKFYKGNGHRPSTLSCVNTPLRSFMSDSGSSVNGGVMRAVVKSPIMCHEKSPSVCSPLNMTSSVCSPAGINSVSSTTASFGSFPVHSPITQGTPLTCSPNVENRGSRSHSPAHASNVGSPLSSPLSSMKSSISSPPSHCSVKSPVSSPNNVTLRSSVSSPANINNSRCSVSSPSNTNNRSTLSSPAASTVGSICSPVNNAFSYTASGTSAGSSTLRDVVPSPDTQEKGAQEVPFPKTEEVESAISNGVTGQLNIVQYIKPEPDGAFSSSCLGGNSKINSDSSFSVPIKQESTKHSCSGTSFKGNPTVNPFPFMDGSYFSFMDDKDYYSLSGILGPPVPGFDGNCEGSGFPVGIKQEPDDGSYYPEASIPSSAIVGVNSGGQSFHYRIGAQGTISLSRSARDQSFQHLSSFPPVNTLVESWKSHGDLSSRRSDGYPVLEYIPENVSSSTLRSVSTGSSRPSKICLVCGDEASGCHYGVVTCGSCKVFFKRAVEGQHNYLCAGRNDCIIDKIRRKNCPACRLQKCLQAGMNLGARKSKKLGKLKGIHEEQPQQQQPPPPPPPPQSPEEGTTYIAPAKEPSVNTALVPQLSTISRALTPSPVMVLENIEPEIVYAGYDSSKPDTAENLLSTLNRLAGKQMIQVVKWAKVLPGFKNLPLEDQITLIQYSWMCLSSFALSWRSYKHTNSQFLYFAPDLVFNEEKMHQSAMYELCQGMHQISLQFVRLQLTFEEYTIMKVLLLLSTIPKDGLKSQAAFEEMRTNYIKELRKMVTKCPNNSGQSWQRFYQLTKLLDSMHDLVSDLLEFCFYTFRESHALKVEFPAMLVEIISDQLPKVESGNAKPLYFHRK
The experiment is described as follows: MR luciferase reporter gene experiment. Conditions: HEK293 transfected with pBIND-MR. As for the experimental part: as §1, §2, §3, §4, §5

The next experiment concerns the target T3, glucocorticoid receptor (Homo sapiens, UniProt P04150).
T3 construct: expressed in transfected cells; host or cells: HEK293
T3 sequence (P04150 1-777): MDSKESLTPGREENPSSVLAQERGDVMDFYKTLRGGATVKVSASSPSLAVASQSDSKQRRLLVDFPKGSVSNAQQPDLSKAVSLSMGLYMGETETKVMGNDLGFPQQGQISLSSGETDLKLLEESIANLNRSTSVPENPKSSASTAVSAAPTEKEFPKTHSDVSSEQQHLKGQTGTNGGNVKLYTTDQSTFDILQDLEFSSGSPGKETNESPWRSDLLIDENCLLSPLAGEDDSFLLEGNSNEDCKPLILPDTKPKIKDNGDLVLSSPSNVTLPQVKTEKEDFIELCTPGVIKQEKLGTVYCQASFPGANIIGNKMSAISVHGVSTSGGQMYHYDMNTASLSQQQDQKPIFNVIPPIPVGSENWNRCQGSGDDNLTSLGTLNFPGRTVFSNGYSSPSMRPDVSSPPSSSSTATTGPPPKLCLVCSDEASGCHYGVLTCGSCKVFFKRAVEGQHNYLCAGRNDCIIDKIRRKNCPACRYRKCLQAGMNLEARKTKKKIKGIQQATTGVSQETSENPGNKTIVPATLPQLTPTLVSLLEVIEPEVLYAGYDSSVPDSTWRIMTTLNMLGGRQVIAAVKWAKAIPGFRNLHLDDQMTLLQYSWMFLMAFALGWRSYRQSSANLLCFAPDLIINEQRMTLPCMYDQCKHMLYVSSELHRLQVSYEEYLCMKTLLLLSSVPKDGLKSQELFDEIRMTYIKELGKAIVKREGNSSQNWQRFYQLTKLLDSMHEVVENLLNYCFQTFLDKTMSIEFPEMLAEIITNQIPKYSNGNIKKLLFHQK
Kind of experiment: Measurement 1 of glucocorticoid receptor reporter gene GRE activity. Conditions: HEK293 transfected with pGL5 and pBIND-GR, 24 hours. As for the experimental part: as §1
The prepared transfection mixtures were added to 10 mL of the cell density-adjusted resuspension, mixed well by turning the mixtures upside down, and seeded into a 96-well plate at a volume of 100 μL/well.
as §4
The final measurement value was a normalized value “F/R” obtained by dividing the Firefly Luciferase fluorescent signal by the Renilla Luciferase fluorescent signal.
The data were copied and pasted into Excel, and the activation rate was obtained through an equation.
The data were imported into MS Excel and subjected to curve fitting by using XLFit excel add-in version 5.4.0.8 to obtain an EC50 value.
as §5

pEC50: −log10 of the molar value. Where only a bound is given, the exact number is not on record here.

Consider `C[C@]12C=CC(=O)C=C1CC[C@@H]1[C@@H]2[C@@H](O)C[C@@]2(C)[C@H]1C[C@H]1O[C@@H](c3ccc(Cc4ccc(CO)cc4)cc3)O[C@]12C(=O)CO` [Compound 4], for which the results for the negative-log EC50 (pEC50) at ERα, on MR and on glucocorticoid receptor were < 6.00, < 6.00 and 10.40, respectively.

These data come from patent publication US20250002527A1, “STEROID COMPOUND AND CONJUGATE THEREOF” (DUALITY BIOLOGICS (SUZHOU) CO., LTD., priority 2021, published 2025).
